From patent US20260271925A1, “DYSREGULATION OF PLANKTONIC BACTERIAL METABOLISM” (Lixa Limited, priority 2023, published 2026)
In brackets after ≈: the same amount, converted by molar mass. Each block holds one molecule with its values, some of them ahead of it.

Experiments:
[1] = tested on: P. aeruginosa 001-11R; assay: Minimum inhibitory concentration by broth microdilution (Example 2); format: cell-based, Pseudomonas aeruginosa
Protocol: Bacterial strains were maintained as suspensions in 20% (v/v) glycerol/Brain-Heart Infusion at −80° C. For use, a loop-full of ice was scraped from the stock and streaked for single colonies on rich media containing 1.8% agar (for Pseudomonas aeruginosa or Klebsiella pneumoniae, Luria-Bertani medium; for Staphylococcus aureus or Streptococcus pneumoniae, Trypticase Soy agar) and incubated overnight at 37° C.
A standard inoculum was prepared from broth culture. 1 to 3 colonies from an overnight agar culture plate were transferred to 5 ml of broth media and incubated at 37° C. with shaking (200 rpm) until turbidity was greater than that of a 0.5 McFarland Standard (overnight). The following broth media were used: Cation-adjusted Mueller-Hinton broth (caMHB—all strains); Roswell Park Memorial Institute medium (RPMI 1640, phenol red-free—S. aureus); Trypticase Soya Broth (TSB—S. aureus, S. pneumoniae); Todd Hewitt Broth (THB—S. pneumoniae), M63 minimal medium, supplemented with 0.2% glucose (M63—K. pneumoniae).
(§1) The broth culture was diluted in broth to a turbidity equal to a 0.5 McFarland Standard using a spectrophotometer at a wavelength of 620 nm. The 0.5 McFarland Standard was further diluted 1:100 in broth to create the standard inoculum. 50 μl of this standard inoculum was dispensed into every well in the microtitre tray, except the negative controls, where 50 μl of broth was dispensed instead.
(§2) Next, a working concentration at two times the highest target concentration for every antimicrobial was created in broth from stock solutions. 100 μl of this working concentration was pipetted into the first well, and 50 μl of broth media into all other wells. 50 μl of the first well was pipetted out and serially diluted across all wells in the row until the final concentration in the range achieved. 50 μl from the final well was removed and discarded. This produced a concentration range where each well was double the target concentration. All agents were performed in duplicate.
(§3) 96 well trays were incubated at 37° C. for 18±2 hours.

[2] = tested on: K. pneumoniae WACC 790; assay: Resazurin reduction for the evaluation of metabolic activity (Example 2, FIG. 8); format: cell-based, Klebsiella pneumoniae
Protocol: (§4) Bacterial strains were maintained as suspensions in 20% (v/v) glycerol/Brain-Heart Infusion at −80° C.
Aerobic respiration was measured in the presence or absence of D-Lactic acid and the presence or absence of companion antibiotics either following incubation and visual recording of the MIC, or in a separate study. For evaluation after completion of MIC determination, the entire volume of the MIC well (100 μl) was mixed by pipetting up and down, then transferred to the equivalent well of a fluorescence-absorbance suitable 96-well plate. Alternatively, cultures were pipetted together as above and incubated overnight at 37° C. in the absence of any antimicrobial compounds. […] After incubation regimes were completed for both procedures, resazurin reduction was evaluated by adding 10 μl of a 0.02% resazurin solution to every well, and incubating the plates with gentle shaking (40 rpm) for a further 90 minutes at 37° C. […]
Following incubation, the 96-well trays were read on a fluorescence-absorbance spectrophotometer, using an excitation frequency of 565 nm and emission frequency of 590 nm. […]

[3] = tested on: bioluminescent col^R E. coli Xen14; assay: Murine peritoneal-sepsis model, CD1 male mice challenged IP (Example 6); format: in vivo, Escherichia coli; conditions: for survival of infected mice: up to 72 h post-infection, 8 mice per group, Sodium D-Lactate 1000 mg/kg single oral dose, colistin 1 mg/kg IP at 0, 4, 8 and 12 h
Protocol: Bioluminescent col^R E. coli Xen14 was streaked onto a 5% sheep blood agar plate containing 30 μg/ml kanamycin and incubated overnight (o/n) at 37° C. in normal air. The plate was first checked on a Lumina XRMS Ill machine to ensure bioluminescence, then a loopful of the o/n growth was suspended into 10 mL Luria Bertani (LB) broth to A600 nm=0.05. The suspension was incubated at 37° C. for approx. 3 h until A600 nm=0.5 (equivalent to approx. 5×10^8 CFU/mL). The bacterial suspension was centrifuged at 4,000×g for 5 min, resuspended and washed twice in phosphate buffered saline (PBS, pH 7.2) resuspended again in PBS and then placed on wet ice and used for mouse infection within 10 min of preparation as described below.
Outbred Swiss male (CD1) mice, 6-7 weeks (approx. 26-33 g, 8 mice per group) obtained from the Laboratory Animal Services breeding facility of The University of Adelaide, were used in these experiments. Mice had access to food and water ad libitum. The Animal Ethics Committee of The University of Adelaide (approval number S-2022-044) reviewed and approved all animal experiments. The study was conducted in compliance with the Australian Code of Practice for the Care and Use of Animals for Scientific Purposes (8th Edition 2013) and the South Australian Animal Welfare Act 1985.
Each mouse was challenged intraperitoneally (IP) with approx. 1×10^8 CFU of the bioluminescent col^R E. coli Xen14 in 200 μL PBS containing 3% porcine stomach mucin type Ill (Sigma Aldrich) and subjected to bioluminescence imaging in both ventral and dorsal positions on the IVIS Lumina XRMS Series Ill system while under anaesthesia. […]
Aliquots of blood samples (approx. 50 μL) were taken by submandibular (facial vein) bleeding from individual mice in all groups at 4 h for bacterial enumeration. […] In all experiments, signals were collected from a defined region of interest and total flux intensities (photons/s) analysed using Living Image Software 4.7.3. Survival rates for the groups were recorded. […]

[4] = tested on: S. aureus 29213; assay: Minimum inhibitory concentration of metal salts by broth microdilution in Trypticase Soya broth (Example 4); format: cell-based, Staphylococcus aureus
Protocol: (§5) Bacterial strains were maintained as suspensions in 20% (v/v) glycerol/Brain-Heart Infusion at −80° C. For use, a loop-full of ice was scraped from the stock and streaked for single colonies on Trypticase Soya agar containing 1.8% agar and incubated overnight at 37° C.
(§6) A standard inoculum was prepared from broth culture. One to three colonies from an overnight agar culture plate were transferred to 5 ml of broth media and incubated at 37° C. with shaking (200 rpm) until turbidity was greater than that of a 0.5 McFarland Standard (overnight). All assays were performed in Trypticase Soya broth.
as §1
as §2, with “salt (in aqueous solution)” for “antimicrobial”
as §3

[5] = tested on: S. aureus MRSA 510; assay: as above; format: cell-based, Staphylococcus aureus
Protocol: as §5, §6, §1
as §2, with “salt (in aqueous solution)” for “antimicrobial”
as §3

[6] = tested on: Pseudomonas aeruginosa clinical isolates from patients with cystic fibrosis; assay: Resazurin staining of planktonic cultures, metabolic activity (Example 1); format: cell-based; conditions: resorufin fluorescence; 24 clinical isolates; 24 h D-Lactic acid treatment
Protocol: Clinical isolates of Pseudomonas aeruginosa collected from patients with cystic fibrosis were phenotyped and stored as 50% glycerol stocks at −70° C.±2° C. Clinical isolates were thawed and streaked out on blood agar plates to grow at 37° C., 5% CO2 for 12-24 hours, or until isolated colonies were large enough to sustain further culturing could be selected. Isolated colonies were looped into 5 mL of LB broth and incubated overnight at 37° C., 5% CO2 with gentle shaking to achieve stationary phase (B0).
B0 cultures were diluted 1:1000 in Pseudomonas minimal medium (herein referred to as PMM) to achieve approximately […], then 150 μL of each diluted culture was transferred to wells of a 96 well mitrotitre tray and incubated overnight at 37° C., 5% CO2. D-Lactic acid was then applied by adding 50 μL of appropriately stock solutions diluted in PMM (or vehicle-only in the case of control wells) and incubating for a further 24 hours at 37° C., 5% CO2. 20 μL culture supernatant was then transferred to wells containing 180 μL fresh PMM, culture density determined by measuring the absorbance at 595 nm (using a ThermoFisher Multiskan FC plate reader). […]
Viable cells reduce the blue resazurin dye to the pink, fluorescent resorufin form. Following incubation fluorescence was quantified by excitation wavelength of 540 nm and an emission wavelength of 590 nm using Enspire microplate reader. […]

[7] = tested on: P. aeruginosa strain WACC91; assay: Resazurin reduction of planktonic cultures in M63 (glucose), D- versus L-Lactic acid (Example 3); format: cell-based, Pseudomonas aeruginosa; conditions: resorufin fluorescence; compared to vehicle only treatment; M63 (glucose); 24 h
Protocol: . Viable cells reduce the blue resazurin dye to the pink, fluorescent resorufin form. Following incubation fluorescence was quantified by excitation wavelength of 540 nm and an emission wavelength of 590 nm using Enspire microplate reader.
P. aeruginosa strain WACC91 was maintained as a suspension in 20% (v/v) glycerol/Brain-Heart Infusion at −80° C. For use, a loop-full of ice was scraped from the stock and streaked for single colonies on LB media containing 1.8% agar and incubated overnight at 37° C. Isolated colonies were looped into 5 mL of LB broth and incubated at 37° C. with shaking until turbidity was greater than that of a 1.0 McFarland Standard (3-4 h).
The broth culture was diluted in M63 minimal media containing 0.2% (w/v) glucose as the sole carbon source to a turbidity equal to a 1.0 McFarland standard using a spectrophotometer at a wavelength of 595 nm. This culture was then diluted 1:100 in M63 (glucose) and 100 μL together with an additional 50 μL was transferred to each well of a 96 well microtitre tray and incubated overnight at 37° C., 5% CO2. D-Lactic acid, L-Lactic acid, or vehicle only (sterile H2O) was then applied by adding 50 μL of appropriate stock solutions diluted in M63 (glucose) and incubating for a further 24 hours at 37° C., 5% CO2. Culture metabolic activity was then determined using resazurin reduction as described above in Example 1.

[8] = tested on: S. aureus 510 (MRSA); assay: Minimum inhibitory concentration by broth microdilution (Example 2); format: cell-based, Staphylococcus aureus; conditions: unit assumed
Protocol: as §4
(§7) A standard inoculum was prepared from broth culture.
as §1, §2, §3

[9] = tested on: S. aureus MSSA 278; assay: as above; format: cell-based, Staphylococcus aureus; conditions: unit assumed
Protocol: as §4, §7, §1, §2, §3

[10] = antibiotic + 1 mM D-Lactic acid
[11] = antibiotic + 10 mM D-Lactic acid

Molecule: colistin
MIC + 1 mM D-Lactic acid [1, 10]: 1.0 | MIC + 10 mM D-Lactic acid [1, 11]: 1.0 | MIC ([1]; antibiotic alone): 2.0 | Relative metabolic activity, antibiotic plus D-Lactic acid versus antibiotic only ([2]; plus 10 mM D-Lactic acid): enhances metabolic activity suppression | survival of infected mice [3]: three out eight

MIC D-Lactate salt ([4]; metal ion as D-Lactate salt): 4 mM | MIC (NO3)2 salt ([4]; metal ion as nitrate salt): 8 mM | MIC D-Lactate salt ([5]; metal ion as D-Lactate salt): 4 mM | MIC (NO3)2 salt ([5]; metal ion as nitrate salt): 8 mM
Molecule: [Zn+2] [Zn^2+]

Molecule: C[C@@H](O)C(=O)O [D-Lactic acid, (2R)-2-hydroxypropanoic acid]
inhibition of metabolic activity [6]: 90% | inhibition of metabolic activity [7]: > 50%

MIC + 1 mM D-Lactic acid [8, 10]: 8 ng/mL | MIC + 10 mM D-Lactic acid [8, 11]: 8 ng/mL | MIC ([8]; antibiotic alone): 60 ng/mL (≈ 0.0729 µM) | MIC + 1 mM D-Lactic acid [9, 10]: 8 ng/mL | MIC + 10 mM D-Lactic acid [9, 11]: 8 ng/mL | MIC ([9]; antibiotic alone): 15 ng/mL (≈ 0.0182 µM)
Molecule: CO[C@H]1/C=C/O[C@@]2(C)Oc3c(C)c(O)c4c(O)c(c(/C=N/N5CCN(C)CC5)c(O)c4c3C2=O)NC(=O)/C(C)=C\C=C\[C@H](C)[C@H](O)[C@@H](C)[C@@H](O)[C@@H](C)[C@H](OC(C)=O)[C@@H]1C [rifampicin]

Molecule: C[C@@H](O)C(=O)[O-].[Na+] [Sodium D-Lactate]
treatment effectiveness (protection) ([3]; single oral dose of 1000 mg/kg): not protective | survival of infected mice [3]: succumbed to infection by 12 h post-challenge

Molecule: O=C(O)c1cn(C2CC2)c2cc(N3CCNCC3)c(F)cc2c1=O [Ciprofloxacin]
Relative metabolic activity, antibiotic plus D-Lactic acid versus antibiotic only ([2]; plus 0.1 mM D-Lactic acid): enhances metabolic activity suppression
